In patent publication US12473339B2, “Acylated glucagon analogues” (Zealand Pharma A/S, priority 2013, dated 2025):
*1 amine or outer side, *2 acyl side, *3 side chain or, on linkers, in order; H or OH if unused. Where a SMILES comes first, the peptide text is derived from it. Side-chain parts run from the residue outwards. [ ]: non-standard residue; d: D form. The star is where a group is joined. C18 diacid = O=C(O)CCCCCCCCCCCCCCCCC(=O)*; γGlu = O=C(O)[C@H](CCC(=O)[*:2])N[*:1]; Ac4c = NC1(C(=O)O)CCC1; AEEA = NCCOCCOCC(=O)O; Aib = CC(C)(N)C(=O)O

Experiments:
[1] = target: T1, human glucagon-like peptide 1 receptor (GLP-1R) (Homo sapiens, UniProt P43220); assay: GLP-1 receptor efficacy assay (cAMP AlphaScreen, CHO cells); format: cell-based; conditions: for Ratio GLP-1/Glucagon: EC50 [GLP-1R] / EC50 [Glucagon-R], human receptors in CHO-K1
T1 construct: expressed in transfected cells
Text: (§1) The cDNA encoding either the human glucagon receptor (Glucagon-R) (primary accession number P47871) or the human glucagon-like peptide 1 receptor (GLP-1R) (primary accession number P43220) were synthesized and cloned into a mammalian expression vector containing a Zeocin resistance marker.
(§2) The mammalian expression vectors encoding the Glucagon-R or the GLP-1-R were transfected into Chinese hamster ovary (CHO) cells by the Attractene method. Stably expressing clones were obtained by Zeocin selection (250 μg/mL) upon limited dilution of cells resistant to the selection pressure. Glucagon-R and GLP-1-R cell clones expressing were picked, propagated and tested in the Glucagon-R and GLP-1-R efficacy assays as described below. One Glucagon-R expressing clone and one GLP-1-R expressing clone were chosen for compound profiling.
(§3) CHO cells expressing the human Glucagon-R, or human GLP-1-R were seeded 24 hours prior to the assay at 30,000 cells per well in 96-well microtiter plates in culture in 100 μl growth medium. On the day of analysis, growth medium was removed and the cells were washed once with 200 μl of assay buffer (Krebs-Ringer-buffer—KRBH). The buffer was removed and the cells were incubated for 15 min at room temperature in 10 μl KRBH (KRBH+10 mM HEPES, 5 mM NaHCO3, 0.1% (V/V) BSA) with 0.1 mM IBMX in deionized water containing increasing concentrations of test peptides. The reaction was stopped by the addition of lysis buffer (0.1% w/v BSA, 5 mM HEPES, 0.3% v/v Tween-20). After cell lysis for 10 min at room temperature, lysates were transferred to 384-well plates and 10 μl of acceptor/donorbead mixture as contained in the AlphaScreen™ cAMP Functional Assay Kit was added. After one hour of incubation at room temperature in the dark, the cAMP content was determined applying the AlphaScreen™ cAMP Functional Assay Kit from Perkin-Elmer according to manufacturer instructions. EC50 and relative efficacies compared to reference compounds (glucagon and GLP-1) were calculated applying computer aided curve fitting. The GLP-1/glucagon ratio is calculated as defined earlier.

[2] = target: T2, endogenous glucagon receptor (Rattus norvegicus, UniProt P30082); assay: Agonistic activity on endogenous glucagon receptor (glycogen synthesis rate in primary rat hepatocytes); format: cell-based; conditions: inhibition of glycogen synthesis rate (14C-glucose incorporation), 3 hours
T2 construct: Agonistic activity of the test compounds on endogenous glucagon receptor; endogenous in cells; host or cells: primary rat hepatocytes
Protocol: Agonistic activity of the test compounds on endogenous glucagon receptor was determined by measuring their effect on rate of glycogen synthesis in primary rat hepatocytes. Upon activation of the glucagon receptor, an inhibition of the glycogen synthesis rate is expected. Rate of glycogen synthesis was determined by counting the amount of radioactively labeled glucose incorporated into the cellular glycogen stores in a defined period of time.
Primary rat hepatocytes were cultured at a density of 40,000 cells/well in a 24-well plate for 24 hours at 37° C. and 5% CO2.
Medium was discarded and the cells washed with PBS. 180 μL of KRBH-based buffer containing 0.1% BSA and glucose at a concentration of 22.5 mM was then added to the wells, followed by test compound and 40 μCi/ml D-[U14C] glucose (20 μL each). Incubation was continued for 3 hours.
At the end of the incubation period, the incubation buffer was aspirated and cells washed once with ice-cold PBS before lysis by incubation for 30 min at room temperature with 100 μL 1 mol/l NaOH.
Cell lysates were transferred to 96-well filter plates and glycogen precipitated by incubating the filter-plates for 120 min at 4° C. followed by washing the filter plates 4 times with ice-cold ethanol (70%). The resulting precipitates were filtered to dryness and the amount of incorporated ^14C-glucose determined by using a Topcount scintillation counter according to manufacturer's recommendations.
Wells with vehicle controls (0.1% (v/v) DMSO in KRBH buffer) were included as reference for non-inhibited glycogen synthesis (100% CTL). Wells without added D-[U^14C] glucose were included as controls for non-specific background signal (subtracted from all values). Endogenous glucagon peptide was used as a positive control.
All treatments were performed at least in duplicates.
Parameters calculated to describe both the potency as well as the agonistic activity of each test compound on the endogenous glucagon receptor are pEC50 and % CTL.
% CTL is determined by calculating the percentage of CPM/well in the presence of the test compound compared to the CPM/well of the vehicle control after subtracting the background CPM/well: [CPM/well(basal)−CPM/well(sample)]*100/[CPM/well(basal)−CPM/well(control)]
An activator of the glucagon receptor will result in an inhibition of the glycogen synthesis rate and will give % CTL values between 0% CTL (complete inhibition) and 100% CTL (no observable inhibition).
The resulting activity curves were plotted as absolute counts (unit: cpm/sample) over log (test compound concentration) and analyzed using the curve fitting program XLfit.
pEC50 (negative logarithmic value of EC50) reflects the potency of the test compound. […]

[3] = Pharmacokinetic parameters after intravenous administration to rats; conditions: male, Han/Wistar, rat, in vivo, 20 nmol/kg
Protocol: Pharmacokinetic parameters of the test compounds were determined after intravenous administration to Han/Wistar rats. The acylated GLP-1 analogue semaglutide was also tested for comparison purposes. Male Wistar rats were obtained from Charles River (Germany) weighing approximately 180 to 210 g at time of arrival at the test facility. Rats were caged in European standard rat cages type IV with light cycle of 12-hour dark and 12-hour light. During the study rats were housed in standard rat cages type III. Both diet Altromin 1324 (Altromin, Germany) and water was administered ad libitum during the whole experimental period. The animals were housed in the test facility for at least 4 days in order to assure proper acclimatization. The compounds were first dissolved in 0.1% aqueous ammonia to a nominal concentration of 2 mg/ml, and then diluted to the desired dosing strength (10 μM) in sterile PBS containing 25 mM phosphate buffer, pH 7.4. Intravenous injections corresponding to 20 nmol/kg were given via a lateral tail vein. Blood samples (200 μl) were collected from the periorbital plexus at time points 0.08, 0.25, 0.5, 1, 2, 4, 8, 24, 32 and 48 h post dosing into K3EDTA tubes and centrifuged for 5 minutes at 4° C. within 20 minutes of sampling. […] Individual plasma concentration-time profiles were analysed by a non-compartmental approach using ToxKin™ version 3.2 (Unilog IT Services), and the resulting pharmacokinetic parameters were determined.

[4] = target: T3, human glucagon receptor (Glucagon-R) (Homo sapiens, UniProt P47871); assay: Glucagon receptor efficacy assay (cAMP AlphaScreen, CHO cells); format: cell-based; conditions: cAMP formation, CHO cells expressing human Glucagon-R, 15 min; read-out: EC50 hGCGR CHO-K1
T3 construct: expressed in transfected cells
Text: as §1, §2, §3

T2 sequence (P30082 27-485): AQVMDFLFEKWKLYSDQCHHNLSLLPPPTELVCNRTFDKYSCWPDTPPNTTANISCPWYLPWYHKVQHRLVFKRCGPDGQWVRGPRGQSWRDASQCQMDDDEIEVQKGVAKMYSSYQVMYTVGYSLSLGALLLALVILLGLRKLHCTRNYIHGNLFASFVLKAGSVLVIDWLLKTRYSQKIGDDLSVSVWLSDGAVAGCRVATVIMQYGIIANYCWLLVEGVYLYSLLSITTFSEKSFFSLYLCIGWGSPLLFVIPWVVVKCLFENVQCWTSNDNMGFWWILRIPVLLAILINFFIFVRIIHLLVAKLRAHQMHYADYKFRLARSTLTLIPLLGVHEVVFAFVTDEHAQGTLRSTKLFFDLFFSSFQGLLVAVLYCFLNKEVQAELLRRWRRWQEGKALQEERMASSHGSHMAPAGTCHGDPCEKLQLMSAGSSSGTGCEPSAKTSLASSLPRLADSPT
T1 sequence (P43220 24-463): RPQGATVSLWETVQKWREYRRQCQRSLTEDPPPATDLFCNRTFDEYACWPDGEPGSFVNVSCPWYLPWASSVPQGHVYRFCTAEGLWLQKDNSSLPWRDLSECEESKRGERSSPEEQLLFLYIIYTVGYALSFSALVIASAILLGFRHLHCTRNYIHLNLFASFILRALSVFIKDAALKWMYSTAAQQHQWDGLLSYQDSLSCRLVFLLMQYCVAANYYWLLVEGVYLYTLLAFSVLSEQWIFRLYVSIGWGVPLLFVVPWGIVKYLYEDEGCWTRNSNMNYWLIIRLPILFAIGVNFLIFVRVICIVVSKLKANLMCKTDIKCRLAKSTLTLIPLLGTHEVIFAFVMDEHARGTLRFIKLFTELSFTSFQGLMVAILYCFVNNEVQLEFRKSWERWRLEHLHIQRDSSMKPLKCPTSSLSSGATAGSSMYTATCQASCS
T3 sequence (P47871 26-477): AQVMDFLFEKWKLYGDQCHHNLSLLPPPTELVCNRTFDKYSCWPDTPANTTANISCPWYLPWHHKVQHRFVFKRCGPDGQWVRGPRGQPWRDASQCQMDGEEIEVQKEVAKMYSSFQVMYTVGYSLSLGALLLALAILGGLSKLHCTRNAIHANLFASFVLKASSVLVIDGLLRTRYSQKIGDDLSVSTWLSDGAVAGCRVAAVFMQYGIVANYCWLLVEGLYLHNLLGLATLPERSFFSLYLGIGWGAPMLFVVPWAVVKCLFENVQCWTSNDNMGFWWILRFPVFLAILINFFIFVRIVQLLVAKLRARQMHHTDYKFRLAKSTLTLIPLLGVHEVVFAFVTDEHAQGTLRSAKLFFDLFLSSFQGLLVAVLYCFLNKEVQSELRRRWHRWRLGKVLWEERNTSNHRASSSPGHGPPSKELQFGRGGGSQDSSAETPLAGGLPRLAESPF

| Ratio GLP-1/Glucagon [1] | EC50 [2] [nM] | MRT [3] [h] | clearance [3] [mL/min/kg] | half-life [3] [h] | EC50 [4] [nM] | EC50 ([1]; cAMP formation, CHO cells expressing human GLP-1-R, 15 min, read-out: EC50 hGLP-1R CHO-K1) [nM] | Compound |
| --- | --- | --- | --- | --- | --- | --- | --- |
| 13.54 | 0.11 | 13.6 | 0.11 | 9.1 |  |  | CC[C@H](C)[C@H](NC(=O)[C@H](Cc1ccccc1)NC(=O)[C@H](CC(=O)O)NC(=O)[C@H](CCCCN)NC(=O)[C@H](C)NC(=O)[C@H](C)NC(=O)[C@H](CCCNC(=N)N)NC(=O)[C@H](CCCCNC(=O)COCCOCCNC(=O)COCCOCCNC(=O)CC[C@H](NC(=O)CCCCCCCCCCCCCCCCC(=O)O)C(=O)O)NC(=O)[C@H](CC(=O)O)NC(=O)[C@H](CC(C)C)NC(=O)[C@H](Cc1ccc(O)cc1)NC(=O)[C@H](CCCCN)NC(=O)[C@H](CO)NC(=O)[C@H](Cc1ccc(O)cc1)NC(=O)[C@H](CC(=O)O)NC(=O)[C@H](CO)NC(=O)[C@@H](NC(=O)[C@H](Cc1ccccc1)NC(=O)[C@@H](NC(=O)CNC(=O)[C@H](CCC(N)=O)NC(=O)C(C)(C)NC(=O)[C@@H](N)Cc1c[nH]cn1)[C@@H](C)O)[C@@H](C)O)C(=O)N[C@@H](CCC(=O)O)C(=O)N[C@@H](Cc1c[nH]c2ccccc12)C(=O)N[C@@H](CC(C)C)C(=O)N[C@@H](CCC(=O)O)C(=O)N[C@@H](CO)C(=O)N[C@@H](C)C(N)=O [Compound 2, H-H-Aib-QGTFTSDYSKYLD-K([17-carboxy-heptadecanoyl]-isoGlu-Peg3-Peg3)-RAAKDFIEWLESA-NH2] (H-H[Aib]QGTFTSDYSKYLDK([AEEA-AEEA-γGlu-C18 diacid])RAAKDFIEWLESA-NH2) |
| 3.33 | 0.19 |  |  |  | 0.18 |  | CC[C@H](C)[C@H](NC(=O)[C@H](Cc1ccccc1)NC(=O)[C@H](CC(=O)O)NC(=O)[C@H](CCCCN)NC(=O)[C@H](C)NC(=O)[C@H](CCCNC(=N)N)NC(=O)[C@H](CCCNC(=N)N)NC(=O)[C@H](CCC(=O)O)NC(=O)[C@H](CC(=O)O)NC(=O)[C@H](CC(C)C)NC(=O)[C@H](Cc1ccc(O)cc1)NC(=O)[C@H](CCCCN)NC(=O)[C@H](CO)NC(=O)[C@H](Cc1ccc(O)cc1)NC(=O)[C@H](CC(=O)O)NC(=O)[C@H](CO)NC(=O)[C@@H](NC(=O)[C@H](Cc1ccccc1)NC(=O)[C@@H](NC(=O)CNC(=O)[C@H](CCC(N)=O)NC(=O)C1(NC(=O)[C@@H](N)Cc2c[nH]cn2)CCC1)[C@@H](C)O)[C@@H](C)O)C(=O)N[C@@H](CCCCNC(=O)CNC(=O)CNC(=O)[C@H](CO)NC(=O)CNC(=O)[C@H](CO)NC(=O)CNC(=O)CC[C@H](NC(=O)CCCCCCCCCCCCCCCCC(=O)O)C(=O)O)C(=O)N[C@@H](Cc1c[nH]c2ccccc12)C(=O)N[C@@H](CC(C)C)C(=O)N[C@@H](CCC(=O)O)C(=O)N[C@@H](CO)C(=O)N[C@@H](C)C(N)=O [Compound 14] |
| 13.86 | 0.11 |  |  |  | 0.07 | 0.97 | CC[C@H](C)[C@H](NC(=O)[C@H](Cc1ccccc1)NC(=O)[C@H](CC(=O)O)NC(=O)[C@H](CCCCN)NC(=O)[C@H](C)NC(=O)[C@H](CCCNC(=N)N)NC(=O)[C@H](CCCCNC(=O)COCCOCCNC(=O)COCCOCCNC(=O)CC[C@H](NC(=O)CCCCCCCCCCCCCCCCC(=O)O)C(=O)O)NC(=O)[C@H](CCC(=O)O)NC(=O)[C@H](CC(=O)O)NC(=O)[C@H](CC(C)C)NC(=O)[C@H](Cc1ccc(O)cc1)NC(=O)[C@H](CCCCN)NC(=O)[C@H](CO)NC(=O)[C@H](Cc1ccc(O)cc1)NC(=O)[C@H](CC(=O)O)NC(=O)[C@H](CO)NC(=O)[C@@H](NC(=O)[C@H](Cc1ccccc1)NC(=O)[C@@H](NC(=O)CNC(=O)[C@H](Cc1c[nH]cn1)NC(=O)C1(NC(=O)[C@@H](N)Cc2c[nH]cn2)CCC1)[C@@H](C)O)[C@@H](C)O)C(=O)N[C@@H](CCC(=O)O)C(=O)N[C@@H](Cc1c[nH]c2ccccc12)C(=O)N[C@@H](CC(C)C)C(=O)N[C@@H](CCC(=O)O)C(=O)N[C@@H](CO)C(=O)N[C@@H](C)C(N)=O [Compound 9, H-H-Ac4c-HGTFTSDYSKYLDE-K([17-carboxy-heptadecanoyl]-isoGlu-Peg3-Peg3)-RAKDFIEWLESA-NH2] (H-H[Ac4c]HGTFTSDYSKYLDEK([AEEA-AEEA-γGlu-C18 diacid])RAKDFIEWLESA-NH2) |
| 3.31 | 0.19 |  |  |  |  |  | CC[C@H](C)[C@H](NC(=O)[C@H](Cc1ccccc1)NC(=O)[C@H](CC(=O)O)NC(=O)[C@H](CCCCN)NC(=O)[C@H](C)NC(=O)[C@H](CCCNC(=N)N)NC(=O)[C@H](CCCNC(=N)N)NC(=O)[C@H](CCC(=O)O)NC(=O)[C@H](CC(=O)O)NC(=O)[C@H](CC(C)C)NC(=O)[C@H](Cc1ccc(O)cc1)NC(=O)[C@H](CCCCN)NC(=O)[C@H](CO)NC(=O)[C@H](Cc1ccc(O)cc1)NC(=O)[C@H](CC(=O)O)NC(=O)[C@H](CO)NC(=O)[C@@H](NC(=O)[C@H](Cc1ccccc1)NC(=O)[C@@H](NC(=O)CNC(=O)[C@H](CCC(N)=O)NC(=O)C1(NC(=O)[C@@H](N)Cc2c[nH]cn2)CCC1)[C@@H](C)O)[C@@H](C)O)C(=O)N[C@@H](CCC(=O)O)C(=O)N[C@@H](Cc1c[nH]c2ccccc12)C(=O)N[C@@H](CC(C)C)C(=O)N[C@@H](CCC(=O)O)C(=O)N[C@@H](CCCCNC(=O)CNC(=O)CNC(=O)[C@H](CO)NC(=O)CNC(=O)[C@H](CO)NC(=O)CNC(=O)CC[C@H](NC(=O)CCCCCCCCCCCCCCCCC(=O)O)C(=O)O)C(=O)N[C@@H](C)C(N)=O [Compound 16] |
